Values after ≈ are worked out from the molar mass of the structure shown. Where two headings read alike, the source gives them in different places.
How the values were obtained:
Assay in all cases: Antibacterial activity MIC assay (two-fold dilution agar plating)
Format in all cases: cell-based
Escherichia coli = conditions: for MIC: Escherichia coli, read-out: Minimal Inhibitory Concentration (MIC)
Method: (§1) Antibacterial Activity-Evaluating Method (MIC Assay)
(§2) In this study, the compounds of the present invention were tested for their antibacterial activities by using two-fold dilution agar plating method and Denley Multipoint Inoculator A400 according to the guidelines of the CLSI/NCCLS standard. The tested strains were amplified by hydrolyzed casein peptone (Mueller-Hinton Agar) broth and Brain and Heart Infusion. The strains used in this study were bacterial strains that were purchased from ATCC or clinically isolated in Chinese hospitals. Aztreonam, polymyxin or levofloxacin was used as positive control. The drugs were diluted with hydrolyzed casein peptone broth to the desired concentrations including 128.0, 64.0, 32.0, 16.0, 8.0, 4.0, 2.0, 1.0, 0.5, 0.25, 0.125, 0.06 and 0.03 μg/mL, and then placed respectively into each well and mixed thoroughly. After inoculation, the tested strains were incubated for 18 hours at a constant temperature of 35° C., and their growth levels were observed. The drug concentration with no microbial growth in the well was recorded as the lowest Minimal Inhibitory Concentration (MIC).

Citrobacter freundii = Citrobacter freundii ATCC 43864
Method: as §1, §2

[1] = tested on: Stenotrophomonas maltophilia; conditions: Stenotrophomonas maltophilia ATCC 13636
Method: as §1, §2

Shigella flexneri = Shigella flexneri ATCC 12022
Method: as §1, §2

Serratia marcescens = Serratia marcescens ATCC 21074
Method: as §1, §2

Acinetobacter baumannii = conditions: for MIC: Acinetobacter baumannii, read-out: Minimal Inhibitory Concentration (MIC)
Method: as §1, §2

Pseudomonas aeruginosa = conditions: for MIC: read-out: Minimal Inhibitory Concentration (MIC)
Method: as §1, §2

Proteus vulgaris = conditions: for Minimal Inhibitory Concentration (MIC): Proteus vulgaris ATCC 29905
Method: as §1, §2

Salmonella typhi = conditions: for Minimal Inhibitory Concentration (MIC): Salmonella typhi H901
Method: as §1, §2

Providencia rettgeri = conditions: for Minimal Inhibitory Concentration (MIC): Providencia rettgeri ATCC 31052
Method: as §1, §2

Klebsiella Pneumoniae = conditions: for MIC: Klebsiella pneumoniae, read-out: Minimal Inhibitory Concentration (MIC)
Method: as §1, §2

Enterobacter aerogenes = Enterobacter aerogenes ATCC 13048
Method: as §1, §2

Proteus mirabilis = conditions: for Minimal Inhibitory Concentration (MIC): Proteus mirabilis ATCC 49565
Method: as §1, §2

Enterobacter cloacae = conditions: for MIC: read-out: Minimal Inhibitory Concentration (MIC)
Method: as §1, §2

[2] = Escherichia coli 08-85, mcr-1(+)
[3] = Escherichia coli 13-43, mcr-1(+)
[4] = Escherichia coli 13-66, mcr-1(+)
[5] = Escherichia coli 16-1, ESBLs(+)
[6] = Escherichia coli 16-7, ESBLs(−)
[7] = Escherichia coli ATCC 25922, ESBLs(−)
[8] = Escherichia coli ATCC 35218, ESBLs(+)
[9] = Escherichia coli CDC1001728, NDM-1(+)
[10] = Acinetobacter baumannii ATCC 19606
[11] = Pseudomonas aeruginosa ATCC 27853
[12] = Klebsiella Pneumoniae 09-20, mcr-1(+)
[13] = Klebsiella Pneumoniae 16-2, ESBLs(−)
[14] = Klebsiella Pneumoniae 16-14, ESBLs(+)
[15] = Klebsiella Pneumoniae ATCC 700603, ESBLs(+)
[16] = Klebsiella Pneumoniae ATCC BAA-2146, NDM-1(+)
[17] = Enterobacter cloacae ATCC 43560
[18] = Enterobacter cloacae CDC1000654

C=CCON=C(C(=O)NC1C(=O)N(OS(=O)(=O)O)C1(C)C)c1csc(N)n1 (stereo not shown) [Compound B-1]
Minimal Inhibitory Concentration (MIC) (Escherichia coli; [2]): 0.5 µg/mL | Minimal Inhibitory Concentration (MIC) (Escherichia coli; [3]): 1 µg/mL | Minimal Inhibitory Concentration (MIC) (Escherichia coli; [4]): 1 µg/mL | Minimal Inhibitory Concentration (MIC) (Escherichia coli; [5]): 0.25 µg/mL | Minimal Inhibitory Concentration (MIC) (Escherichia coli; [6]): 0.25 µg/mL | Minimal Inhibitory Concentration (MIC) (Escherichia coli; [7]): 0.5 µg/mL | Minimal Inhibitory Concentration (MIC) (Escherichia coli; [8]): 0.5 µg/mL | Minimal Inhibitory Concentration (MIC) (Escherichia coli; [9]): 4 µg/mL | Minimal Inhibitory Concentration (MIC) (Citrobacter freundii): 0.5 µg/mL | Minimal Inhibitory Concentration (MIC) [1]: 16 µg/mL | Minimal Inhibitory Concentration (MIC) (Shigella flexneri): 0.5 µg/mL | Minimal Inhibitory Concentration (MIC) (Serratia marcescens): 1 µg/mL | Minimal Inhibitory Concentration (MIC) (Acinetobacter baumannii; Acinetobacter baumannii 16-16): 32 µg/mL | Minimal Inhibitory Concentration (MIC) (Acinetobacter baumannii; Acinetobacter baumannii 16-33): 8 µg/mL | Minimal Inhibitory Concentration (MIC) (Acinetobacter baumannii; [10]): 8 µg/mL | Minimal Inhibitory Concentration (MIC) (Pseudomonas aeruginosa; Pseudomonas aeruginosa 16-11): >64 µg/mL | Minimal Inhibitory Concentration (MIC) (Pseudomonas aeruginosa; [11]): 64 µg/mL | Minimal Inhibitory Concentration (MIC) (Pseudomonas aeruginosa; Pseudomonas aeruginosa PAO1): 16 µg/mL | Minimal Inhibitory Concentration (MIC) (Proteus vulgaris): ≤0.03 µg/mL | Minimal Inhibitory Concentration (MIC) (Salmonella typhi): 0.25 µg/mL | Minimal Inhibitory Concentration (MIC) (Providencia rettgeri): ≤0.03 µg/mL | Minimal Inhibitory Concentration (MIC) (Klebsiella Pneumoniae; [12]): 1 µg/mL | Minimal Inhibitory Concentration (MIC) (Klebsiella Pneumoniae; [13]): 0.5 µg/mL | Minimal Inhibitory Concentration (MIC) (Klebsiella Pneumoniae; [14]): 0.5 µg/mL | Minimal Inhibitory Concentration (MIC) (Klebsiella Pneumoniae; [15]): 16 µg/mL | Minimal Inhibitory Concentration (MIC) (Klebsiella Pneumoniae; [16]): 4 µg/mL | Minimal Inhibitory Concentration (MIC) (Enterobacter aerogenes): 1 µg/mL | Minimal Inhibitory Concentration (MIC) (Proteus mirabilis): 0.125 µg/mL | Minimal Inhibitory Concentration (MIC) (Enterobacter cloacae; [17]): 0.25 µg/mL | Minimal Inhibitory Concentration (MIC) (Enterobacter cloacae; [18]): 8 µg/mL

C#CCON=C(C(=O)NC1C(=O)N(OS(=O)(=O)O)C1(C)C)c1csc(N)n1 (stereo not shown) [Compound B-2]
Minimal Inhibitory Concentration (MIC) (Escherichia coli; [2]): 0.5 µg/mL | Minimal Inhibitory Concentration (MIC) (Escherichia coli; [3]): 1 µg/mL | Minimal Inhibitory Concentration (MIC) (Escherichia coli; [4]): 1 µg/mL | Minimal Inhibitory Concentration (MIC) (Escherichia coli; [5]): 0.25 µg/mL | Minimal Inhibitory Concentration (MIC) (Escherichia coli; [6]): 0.5 µg/mL | Minimal Inhibitory Concentration (MIC) (Escherichia coli; [7]): 0.5 µg/mL | Minimal Inhibitory Concentration (MIC) (Escherichia coli; [8]): 0.25 µg/mL | Minimal Inhibitory Concentration (MIC) (Escherichia coli; [9]): 4 µg/mL | Minimal Inhibitory Concentration (MIC) (Citrobacter freundii): 0.5 µg/mL | Minimal Inhibitory Concentration (MIC) [1]: 32 µg/mL | Minimal Inhibitory Concentration (MIC) (Shigella flexneri): 0.5 µg/mL | Minimal Inhibitory Concentration (MIC) (Serratia marcescens): 0.5 µg/mL | Minimal Inhibitory Concentration (MIC) (Acinetobacter baumannii; Acinetobacter baumannii 16-16): 32 µg/mL | Minimal Inhibitory Concentration (MIC) (Acinetobacter baumannii; Acinetobacter baumannii 16-33): 4 µg/mL | Minimal Inhibitory Concentration (MIC) (Acinetobacter baumannii; [10]): 4 µg/mL | Minimal Inhibitory Concentration (MIC) (Pseudomonas aeruginosa; Pseudomonas aeruginosa 16-11): >64 µg/mL | Minimal Inhibitory Concentration (MIC) (Pseudomonas aeruginosa; [11]): >64 µg/mL | Minimal Inhibitory Concentration (MIC) (Pseudomonas aeruginosa; Pseudomonas aeruginosa PAO1): 32 µg/mL | Minimal Inhibitory Concentration (MIC) (Proteus vulgaris): ≤0.03 µg/mL | Minimal Inhibitory Concentration (MIC) (Salmonella typhi): 0.5 µg/mL | Minimal Inhibitory Concentration (MIC) (Providencia rettgeri): ≤0.03 µg/mL | Minimal Inhibitory Concentration (MIC) (Klebsiella Pneumoniae; [12]): 1 µg/mL | Minimal Inhibitory Concentration (MIC) (Klebsiella Pneumoniae; [13]): 0.5 µg/mL | Minimal Inhibitory Concentration (MIC) (Klebsiella Pneumoniae; [14]): 1 µg/mL | Minimal Inhibitory Concentration (MIC) (Klebsiella Pneumoniae; [15]): 16 µg/mL | Minimal Inhibitory Concentration (MIC) (Klebsiella Pneumoniae; [16]): 8 µg/mL | Minimal Inhibitory Concentration (MIC) (Enterobacter aerogenes): 1 µg/mL | Minimal Inhibitory Concentration (MIC) (Proteus mirabilis): 0.06 µg/mL | Minimal Inhibitory Concentration (MIC) (Enterobacter cloacae; [17]): 0.5 µg/mL | Minimal Inhibitory Concentration (MIC) (Enterobacter cloacae; [18]): 8 µg/mL

C[C@H]1COc2c(N3CCN(C)CC3)c(F)cc3c(=O)c(C(=O)O)cn1c23 [Levofloxacin, levofloxacin, reference compound]
MIC (Escherichia coli; ATCC25922, Escherichia coli ATCC 25922, ESBLs(−)): ≤ 0.03 µg/mL | MIC (Escherichia coli; ATCC35218, Escherichia coli ATCC 35218, ESBLs(+)): ≤ 0.03 µg/mL | MIC (Escherichia coli; [2]): 16 µg/mL (≈ 44.3 µM) | MIC (Escherichia coli; [3]): 32 µg/mL (≈ 88.6 µM) | MIC (Escherichia coli; [4]): 32 µg/mL (≈ 88.6 µM) | MIC (Escherichia coli; [5]): 0.5 µg/mL (≈ 1.38 µM) | MIC (Escherichia coli; [6]): 0.5 µg/mL (≈ 1.38 µM) | MIC (Escherichia coli; Escherichia coli 17-R28, CRE, NDM-1(+)): 8 µg/mL (≈ 22.1 µM) | MIC (Escherichia coli; [9]): 8 µg/mL (≈ 22.1 µM) | MIC (Citrobacter freundii; ATCC43864, read-out: Minimal Inhibitory Concentration (MIC)): ≤ 0.03 µg/mL | MIC ([1]; ATCC13636, read-out: Minimal Inhibitory Concentration (MIC)): 2 µg/mL (≈ 5.53 µM) | MIC (Shigella flexneri; ATCC12022, read-out: Minimal Inhibitory Concentration (MIC)): 0.06 µg/mL (≈ 0.166 µM) | MIC (Serratia marcescens; ATCC21074, read-out: Minimal Inhibitory Concentration (MIC)): 0.12 µg/mL (≈ 0.332 µM) | MIC (Acinetobacter baumannii; ATCC19606, Acinetobacter baumannii ATCC 19606): 0.25 µg/mL (≈ 0.692 µM) | MIC (Acinetobacter baumannii; Acinetobacter baumannii 16-16): 16 µg/mL (≈ 44.3 µM) | MIC (Acinetobacter baumannii; Acinetobacter baumannii 16-33): 2 µg/mL (≈ 5.53 µM) | MIC (Pseudomonas aeruginosa; ATCC27853, Pseudomonas aeruginosa ATCC 27853): 1 µg/mL (≈ 2.77 µM) | MIC (Pseudomonas aeruginosa; Pseudomonas aeruginosa 16-11): 0.5 µg/mL (≈ 1.38 µM) | MIC (Pseudomonas aeruginosa; Pseudomonas aeruginosa PAO1): 4 µg/mL (≈ 11.1 µM) | MIC (Proteus vulgaris; Proteus vulgaris, ATCC29905, Proteus vulgaris ATCC 29905, read-out: Minimal Inhibitory Concentration (MIC)): ≤ 0.03 µg/mL | MIC (Salmonella typhi; Salmonella enterica, TYPHI, read-out: Minimal Inhibitory Concentration (MIC)): ≤ 0.03 µg/mL | MIC (Providencia rettgeri; Providencia rettgeri, ATCC31052, Providencia rettgeri ATCC 31052, read-out: Minimal Inhibitory Concentration (MIC)): ≤ 0.03 µg/mL | MIC (Klebsiella Pneumoniae; ATCC700603, Klebsiella Pneumoniae ATCC 700603, ESBLs(+)): 0.5 µg/mL (≈ 1.38 µM) | MIC (Klebsiella Pneumoniae; ATCCBAA2146, Klebsiella Pneumoniae ATCC BAA-2146, NDM-1(+)): 128 µg/mL (≈ 354 µM) | MIC (Klebsiella Pneumoniae; [12]): 16 µg/mL (≈ 44.3 µM) | MIC (Klebsiella Pneumoniae; [13]): 0.06 µg/mL (≈ 0.166 µM) | MIC (Klebsiella Pneumoniae; [14]): 0.5 µg/mL (≈ 1.38 µM) | MIC (Enterobacter aerogenes; Klebsiella aerogenes, ATCC13048, read-out: Minimal Inhibitory Concentration (MIC)): 0.06 µg/mL (≈ 0.166 µM) | MIC (Proteus mirabilis; Proteus mirabilis, ATCC49565, Proteus mirabilis ATCC 49565, read-out: Minimal Inhibitory Concentration (MIC)): ≤ 0.03 µg/mL | MIC (Enterobacter cloacae; ATCC43560, Enterobacter cloacae ATCC 43560): ≤ 0.03 µg/mL | MIC (Enterobacter cloacae; [18]): 32 µg/mL (≈ 88.6 µM)
